Reference: publication PMC7801053, “Diarylalkanoids as Potent Tyrosinase Inhibitors from the Stems of Semecarpus caudata” (Evidence-based Complementary and Alternative Medicine : eCAM, 2021)

Key:
[1] = biological target: Tyrosinase (EC 1.14.18.1) from mushroom; assay: Tyrosinase inhibitory assay (L-DOPA substrate, absorbance at 475 nm); conditions: read-out: IC50 (tyrosinase inhibitory activity); mushroom tyrosinase 15 U/mL, L-DOPA 1.5 mM, phosphate buffer pH 6.8, preincubated 30 min, n = 3
Description: Optical values were measured on a Shimadzu UV-1800 spectrophotometer (Shimadzu Pte., Ltd., Singapore). […] Tyrosinase (EC 1.14.18.1) from mushroom (3933 U·mL^−1) and L-dihydroxyphenylalanine (L-DOPA) were obtained from Sigma-Aldrich (Sigma-Aldrich Pte., Ltd., Singapore). Other chemicals were of the highest grade available.
All pure compounds were dissolved in DMSO and tested at concentrations ranging from 0.01 to 100 μM. Assay mixtures in 0.1 M phosphate buffer pH 6.8 were prepared immediately before use, consisting of 100 μL of tyrosinase solution (15 U/mL) and 1900 μL of test solution. These mixtures were preincubated at room temperature for 30 min, followed by addition of 1000 μL of L-DOPA 1.5 mM in pH 6.8 phosphate buffer and incubated at room temperature for 7 min. The absorbances (A) at 475 nm were acquired on Shimadzu UV-1800 spectrophotometer. The inhibitory percentage (I%) was calculated according to the formula: I% = ((Acontrol − Asample)/Acontrol) × 100%. Data were represented as means ± standard error (n = 3). The IC50 values were determined by using GraphPad Prism software with multivariate nonlinear regression and R^2 > 0.9.

tyrosinase = conditions: read-out: tyrosinase inhibitory constant (Ki); ref Choi et al. [25]; cited from earlier work

IC50 [1] | SMILES | Ki (tyrosinase)
0.033 µM | O=C(/C=C/C=C/c1ccc(O)cc1O)c1ccc(O)cc1O [Compound 1, 2E,4E-1,5-bis(2,4-dihydroxyphenyl)penta-2,4-dien-1-one] | 
0.11 µM | O=C(/C=C/C=C/C=C/c1ccc(O)cc1O)c1ccc(O)cc1O [Compound 2, 2E,4E,6E-1,7-bis(2,4-dihydroxyphenyl)hepta-2,4,6-trien-1-one] | 
2.35 µM | O=C(O)/C=C/c1ccc(O)cc1 [Compound 4, p-coumaric acid] | 
27 µM | CC(=O)/C=C/c1ccc(O)c(O)c1 [Compound 6, trans-4-(3,4-dihydroxyphenyl)but-3-en-2-one] | 
> 100 µM | COc1cc(/C=C/C(=O)O)ccc1O [Compound 7, ferulic acid] | 
0.016 µM | O=C(/C=C/c1ccc(O)cc1O)c1ccc(O)cc1O [Compound 8, 2,4,2′,4′-Tetrahydroxychalcone] | 
 | O=c1[nH]cnc2nc[nH]c12 [Hypoxanthine] | > 1000 µM

SMILES | IC50 [1] | Ki (tyrosinase)
COC1=CC(=O)C=C(OC)C1=O [Compound 3, 2,6-dimethoxybenzoquinone] | > 100 µM | 
